Results reported in PubChem BioAssay AID1259407 (Chemical Carcinogenesis Research Information System (CCRIS), 2018).
Active and inactive are the calls of the source. No rule for the calls is given here.

System: CCRIS mutagenicity, Ames/micronucleus/aberration tests
Test: CCRIS mutagenicity studies
[1] = Test System: AMES SALMONELLA TYPHIMURIUM, Strain/Indicator: TA98, Metabolic Activation: NONE, Method: PREINCUBATION
[2] = Test System: AMES SALMONELLA TYPHIMURIUM, Strain/Indicator: TA100, Metabolic Activation: NONE, Method: PREINCUBATION
[3] = Test System: AMES SALMONELLA TYPHIMURIUM, Strain/Indicator: TA102, Metabolic Activation: NONE, Method: PREINCUBATION
[4] = Test System: AMES SALMONELLA TYPHIMURIUM, Strain/Indicator: TA98, Metabolic Activation: RAT, LIVER, S-9, AROCLOR 1254, Method: PREINCUBATION
[5] = Test System: AMES SALMONELLA TYPHIMURIUM, Strain/Indicator: TA100, Metabolic Activation: RAT, LIVER, S-9, AROCLOR 1254, Method: PREINCUBATION

CCCC[N+](=O)[O-]
mutagenic call [1]: inactive; negative | mutagenic call (Test System: AMES SALMONELLA TYPHIMURIUM, Strain/Indicator: TA98, Metabolic Activation: RAT, LIVER, S-9, AROCLOR, Method: PREINCUBATION): inactive; negative | mutagenic call (Test System: AMES SALMONELLA TYPHIMURIUM, Strain/Indicator: TA98, Metabolic Activation: RAT, LIVER, S-9, KANECHLOR 500, Method: PREINCUBATION): inactive; negative | mutagenic call [2]: inactive; negative | mutagenic call (Test System: AMES SALMONELLA TYPHIMURIUM, Strain/Indicator: TA100, Metabolic Activation: RAT, LIVER, S-9, AROCLOR, Method: PREINCUBATION): inactive; negative | mutagenic call (Test System: AMES SALMONELLA TYPHIMURIUM, Strain/Indicator: TA100, Metabolic Activation: RAT, LIVER, S-9, KANECHLOR 500, Method: PREINCUBATION): inactive; negative | mutagenic call [3]: inactive; negative | mutagenic call (Test System: AMES SALMONELLA TYPHIMURIUM, Strain/Indicator: TA102, Metabolic Activation: RAT, LIVER, S-9, AROCLOR, Method: PREINCUBATION): inactive; negative | mutagenic call (Test System: E. COLI, Strain/Indicator: WP2 UVRA (PKM101), Metabolic Activation: NONE, Method: PREINCUBATION): inactive; negative | mutagenic call (Test System: E. COLI, Strain/Indicator: WP2 UVRA (PKM101), Metabolic Activation: RAT, LIVER, S-9, KANECHLOR 500, Method: PREINCUBATION): inactive; negative | mutagenic call (Test System: UDS RAT HEPATOCYTES, Strain/Indicator: THY INCORP, Metabolic Activation: NONE): inactive; negative

O.O.O.[Fe].[Fe]
mutagenic call (Test System: AMES SALMONELLA TYPHIMURIUM, Strain/Indicator: TA97, Metabolic Activation: NONE, Method: PREINCUBATION): inactive; negative | mutagenic call (Test System: AMES SALMONELLA TYPHIMURIUM, Strain/Indicator: TA97, Metabolic Activation: RAT, LIVER, S-9, AROCLOR 1254, Method: PREINCUBATION): inactive; negative | mutagenic call [3]: inactive; negative | mutagenic call (Test System: AMES SALMONELLA TYPHIMURIUM, Strain/Indicator: TA102, Metabolic Activation: RAT, LIVER, S-9, AROCLOR 1254, Method: PREINCUBATION): inactive; negative

O=[N+]([O-])c1c2c3c(ccc4cccc(c43)CC2)c2ccccc12
mutagenic call (Test System: AMES SALMONELLA TYPHIMURIUM, Strain/Indicator: TA98, Metabolic Activation: NONE, Method: STANDARD PLATE): active; positive | mutagenic call (Test System: AMES SALMONELLA TYPHIMURIUM, Strain/Indicator: TA100, Metabolic Activation: NONE, Method: STANDARD PLATE): inactive; negative

CC(C)C(N)C(=O)O (stereo unspecified)
mutagenic call (Test System: AMES SALMONELLA TYPHIMURIUM, Strain/Indicator: TA98, Metabolic Activation: RAT LIVER S-9, CHLOROPHENE, Method: STANDARD PLATE (COMPOUND HEATED AT 250 DEGREES CELSIUS FOR 20 MIN)): inactive; negative

N/C(=N\O)c1ccccc1
mutagenic call (Test System: AMES SALMONELLA TYPHIMURIUM, Strain/Indicator: TA98, Metabolic Activation: CO631 CELLS, Method: PREINCUBATION): inactive; negative | mutagenic call [1]: inactive; negative | mutagenic call (Test System: AMES SALMONELLA TYPHIMURIUM, Strain/Indicator: TA98, Metabolic Activation: RABBIT, LIVER, S-9, Method: PREINCUBATION): active; positive | mutagenic call (Test System: AMES SALMONELLA TYPHIMURIUM, Strain/Indicator: TA98, Metabolic Activation: RAT HEPATOCYTES, Method: PREINCUBATION): inactive; negative | mutagenic call (Test System: AMES SALMONELLA TYPHIMURIUM, Strain/Indicator: TA98, Metabolic Activation: RAT, LIVER, S-9, AROCLOR 1254, ATP, Method: PREINCUBATION): inactive; negative | mutagenic call [4]: inactive; negative | mutagenic call (Test System: AMES SALMONELLA TYPHIMURIUM, Strain/Indicator: TA100, Metabolic Activation: RABBIT, LIVER, S-9, Method: PREINCUBATION): inactive; negative | mutagenic call (Test System: AMES SALMONELLA TYPHIMURIUM, Strain/Indicator: TA100, Metabolic Activation: RAT HEPATOCYTES, Method: PREINCUBATION): inactive; negative | mutagenic call (Test System: AMES SALMONELLA TYPHIMURIUM, Strain/Indicator: TA100, Metabolic Activation: RAT, LIVER, S-9, AROCLOR 1254, ATP, Method: PREINCUBATION): inactive; negative | mutagenic call [5]: inactive; negative

COc1cc(OC)c2c(c1)O[C@@H]1OC=C[C@H]21
mutagenic call [1]: inactive; negative | mutagenic call [4]: active; positive | mutagenic call [2]: active; positive | mutagenic call [5]: active; positive

COc1cc2c(cc1O)CC[C@@H]1[C@@H]2CC[C@]2(C)[C@@H](O)CC[C@@H]12
mutagenic call (Test System: Mouse lymphoma, Strain/Indicator: L5178Y (tk+/tk-), Metabolic Activation: Rat, Liver, S-9, Aroclor 1254, Method: Suspension/plate): active; equivocal (previous evaluation positive)

Nc1nc(-c2ccc([N+](=O)[O-])cc2)nc2c1ncn2[C@H]1C[C@H](O)[C@@H](CO)O1
mutagenic call (Test System: AMES SALMONELLA TYPHIMURIUM, Strain/Indicator: TA98(1,8-DNP), Metabolic Activation: NONE, Method: PREINCUBATION): active; positive | mutagenic call (Test System: AMES SALMONELLA TYPHIMURIUM, Strain/Indicator: TA98(1,8-DNP), Metabolic Activation: RAT, LIVER, S-9, PCB, Method: PREINCUBATION): active; positive | mutagenic call (Test System: AMES SALMONELLA TYPHIMURIUM, Strain/Indicator: TA98(NR), Metabolic Activation: NONE, Method: PREINCUBATION): active; positive | mutagenic call (Test System: AMES SALMONELLA TYPHIMURIUM, Strain/Indicator: TA98(NR), Metabolic Activation: RAT, LIVER, S-9, PCB, Method: PREINCUBATION): active; positive | mutagenic call [1]: active; positive | mutagenic call (Test System: AMES SALMONELLA TYPHIMURIUM, Strain/Indicator: TA98, Metabolic Activation: RAT, LIVER, S-9, PCB, Method: PREINCUBATION): active; positive | mutagenic call (Test System: AMES SALMONELLA TYPHIMURIUM, Strain/Indicator: TA100(1,8-DNP), Metabolic Activation: NONE, Method: PREINCUBATION): active; positive | mutagenic call (Test System: AMES SALMONELLA TYPHIMURIUM, Strain/Indicator: TA100(NR), Metabolic Activation: NONE, Method: PREINCUBATION): active; positive | mutagenic call (Test System: AMES SALMONELLA TYPHIMURIUM, Strain/Indicator: TA100(NR), Metabolic Activation: RAT, LIVER, S-9, PCB, Method: PREINCUBATION): active; positive | mutagenic call [2]: active; positive | mutagenic call (Test System: AMES SALMONELLA TYPHIMURIUM, Strain/Indicator: TA100, Metabolic Activation: RAT, LIVER, S-9, PCB, Method: PREINCUBATION): active; positive | mutagenic call (Test System: AMES SALMONELLA TYPHIMURIUM, Strain/Indicator: YG1020, Metabolic Activation: NONE, Method: PREINCUBATION): active; positive | mutagenic call (Test System: AMES SALMONELLA TYPHIMURIUM, Strain/Indicator: YG1020, Metabolic Activation: RAT, LIVER, S-9, PCB, Method: PREINCUBATION): active; positive | mutagenic call (Test System: AMES SALMONELLA TYPHIMURIUM, Strain/Indicator: YG1021, Metabolic Activation: NONE, Method: PREINCUBATION): active; positive | mutagenic call (Test System: AMES SALMONELLA TYPHIMURIUM, Strain/Indicator: YG1021, Metabolic Activation: RAT, LIVER, S-9, PCB, Method: PREINCUBATION): active; positive | mutagenic call (Test System: AMES SALMONELLA TYPHIMURIUM, Strain/Indicator: YG1024, Metabolic Activation: NONE, Method: PREINCUBATION): active; positive | mutagenic call (Test System: AMES SALMONELLA TYPHIMURIUM, Strain/Indicator: YG1024, Metabolic Activation: RAT, LIVER, S-9, PCB, Method: PREINCUBATION): active; positive | mutagenic call (Test System: AMES SALMONELLA TYPHIMURIUM, Strain/Indicator: YG1025, Metabolic Activation: NONE, Method: PREINCUBATION): active; positive | mutagenic call (Test System: AMES SALMONELLA TYPHIMURIUM, Strain/Indicator: YG1025, Metabolic Activation: RAT, LIVER, S-9, PCB, Method: PREINCUBATION): active; positive | mutagenic call (Test System: AMES SALMONELLA TYPHIMURIUM, Strain/Indicator: YG1026, Metabolic Activation: NONE, Method: PREINCUBATION): active; positive | mutagenic call (Test System: AMES SALMONELLA TYPHIMURIUM, Strain/Indicator: YG1026, Metabolic Activation: RAT, LIVER, S-9, PCB, Method: PREINCUBATION): active; positive | mutagenic call (Test System: AMES SALMONELLA TYPHIMURIUM, Strain/Indicator: YG1029, Metabolic Activation: NONE, Method: PREINCUBATION): active; positive | mutagenic call (Test System: AMES SALMONELLA TYPHIMURIUM, Strain/Indicator: YG1029, Metabolic Activation: RAT, LIVER, S-9, PCB, Method: PREINCUBATION): active; positive
